# Assays:
# carbonic anhydrase [1] = assay: Carbonic anhydrase inhibitors tested against hemolysate bias on the enzymatic CO2 slide (Example 3); assay type: biochemical, human; details: for Enzymatic Bicarbonate With Hemolysate: hemoglobin 200 mg/dL, 1 hour room temperature; for Bias: with vs without hemolysate (hemoglobin 200 mg/dL)
# Method: (§1) A stock hemolysate solution was prepared by collecting fresh blood from suitable human donors. The erythrocytes of the blood was pooled, and then washed with saline four times. The erythrocytes were then lysed by five cycles of freezing to -70° C. and thawing at 37° C. The resulting hemolysate was filtered through Whatman No. 1 (Whatman Ltd. UK) filter paper. Hemoglobin concentration in mg/dL was determined by the method of Harboe described in Sca. J. Clinical Lab. Invest. […] The concentration of hemoglobin is directly related to the level of carbonic anhydrase in the hemolysate stock solution.
# The enzymatic values for CO2 were determined on the test samples with dry-chemistry slides on an […] Clinical Chemistry Analyzer (available from Eastman Kodak Company, Rochester, N.Y.). The principle of the assay is as represented above by reaction series (1) and (5). […] It had the following format:
# A stock solution of 50 mmol/L bicarbonate was prepared in 100 mmol/L tricine buffer (pH 8.0).
# carbonic anhydrase [2] = details: acetazolamide included in the enzymatic CO2 dry chemistry element
# Method: as §1
# carbonic anhydrase [3] = test system: carbonic anhydrase
# Method: Reference values for CO2 (Table I) on test samples were determined using a thermal conductivity procedure on the Corning 965 carbon dioxide analyzer. The technology of the reference procedure is such that it is not affected by carbonic anhydrase.
# The enzymatic values for CO2 were determined on the test samples with dry-chemistry slides on an [sequence] Clinical Chemistry Analyzer (available from Eastman Kodak Company, Rochester, N.Y.). The principle of the assay is as represented above by reaction series (1) and (5). […] It had the following format:
# A stock solution of 50 mmol/L bicarbonate was prepared in 100 mmol/L tricine buffer (pH 8.0). The stock bicarbonate was diluted with either (a) the buffer or (b) the stock hemolysate and the buffer to give test solutions of about 25 mmol/L HCO3^- and varying concentrations of hemoglobin.
# carbonic anhydrase [4] = details: solution assay
# [5] = final inhibitor concentration 20.0 mmol/L
# [6] = final inhibitor concentration 1.0 mmol/L
# [7] = final inhibitor concentration 2.5 mmol/L
# [8] = final inhibitor concentration 5.0 mmol/L
# [9] = final inhibitor concentration 2.0 mmol/L
structure (smiles),measurement,setting,value
CC(N)C(=O)O (racemic) [DL-Alanine],Enzymatic Bicarbonate With Hemolysate,carbonic anhydrase [1]; [5],14.3 mmol/L
same,Bias,carbonic anhydrase [1]; [5],-8.6 mmol/L
CC(=O)Nc1nnc(S(N)(=O)=O)s1 [Acetazolamide],Effect on bias seen with hemolyzed and apparently non-hemolysed patient samples,carbonic anhydrase [2],effectively eliminates the bias
same,Effect on bias seen with freshly prepared hemolysates,carbonic anhydrase [3]; acetazolamide included in the enzymatic CO2 dry chemistry element,significantly reduces the bias
same,Effectiveness when included in the reagent layer,carbonic anhydrase [3]; reagent layer compared with spreading layer,equally as effective
same,Minimum concentration effective as an inhibitor,carbonic anhydrase [4],at least 0.1 mmol/L
same,Effectiveness in eliminating the negative bias of the enzymatic CO2 assay,carbonic anhydrase [1]; among the carbonic anhydrase inhibitors tested,most effective
same,Enzymatic Bicarbonate With Hemolysate,carbonic anhydrase [1]; [6],22.9 mmol/L
same,Bias,carbonic anhydrase [1]; [6],-0.3 mmol/L
[N-]=[N+]=[N-] [Azide],Enzymatic Bicarbonate With Hemolysate,carbonic anhydrase [1]; [7],16.5 mmol/L
same,Bias,carbonic anhydrase [1]; [7],-6.8 mmol/L
O[C@H](CS)[C@@H](O)CS [Dithioerythritol],Enzymatic Bicarbonate With Hemolysate,carbonic anhydrase [1]; [8],17.5 mmol/L
same,Bias,carbonic anhydrase [1]; [8],-5.8 mmol/L
"O=C(O)CN(CCN(CC(=O)O)CC(=O)O)CC(=O)O [EDTA, Ethylenediaminetetraacetic acid]",Enzymatic Bicarbonate With Hemolysate,carbonic anhydrase [1]; [8],14.7 mmol/L
same,Bias,carbonic anhydrase [1]; [8],-8.1 mmol/L
NCC(=O)O [Glycine],Enzymatic Bicarbonate With Hemolysate,carbonic anhydrase [1]; [5],14.3 mmol/L
same,Bias,carbonic anhydrase [1]; [5],-8.1 mmol/L
"O=C(O)CN(CCO)CCN(CC(=O)O)CC(=O)O [HEDTA, NHydroxyethylethylenediaminetriacetic acid]",Enzymatic Bicarbonate With Hemolysate,carbonic anhydrase [1]; [8],15.7 mmol/L
same,Bias,carbonic anhydrase [1]; [8],-7.6 mmol/L
Nc1ccc(S(N)(=O)=O)cc1 [Sulfanilamide],Enzymatic Bicarbonate With Hemolysate,carbonic anhydrase [1]; [9],14.9 mmol/L
same,Bias,carbonic anhydrase [1]; [9],-7.9 mmol/L
Nc1ccc(S(=O)(=O)Nc2nccs2)cc1 [Sulfathiazole],Enzymatic Bicarbonate With Hemolysate,carbonic anhydrase [1]; [9],15.8 mmol/L
same,Bias,carbonic anhydrase [1]; [9],-8.4 mmol/L
N#CS [Thiocyanate],Enzymatic Bicarbonate With Hemolysate,carbonic anhydrase [1]; [7],15.3 mmol/L
same,Bias,carbonic anhydrase [1]; [7],-6.7 mmol/L

# Source: patent publication US5112740A, “Carbon dioxide assay for body fluids comprising carbonic anhydrase” (Eastman Kodak Company, priority 1989, dated 1992)
